From article PMC9776381, “A Large-Scale High-Throughput Screen for Modulators of SERCA Activity” (Biomolecules, 2022)

Key:
[1] = target: T1, SERCA2a (cardiac SR vesicles) (Sus scrofa, UniProt P11607); assay: Oxalate-supported Ca2+-uptake assay, cardiac SR (CRC at pCa 5.4); format: biochemical, porcine; details: for Cardiac SR Ca^2+ Uptake Activity Percent Increase: maximal effect of CRC; for Cardiac SR Ca^2+ Uptake Activity Percent Increase / EC50: pCa 5.4, mean ± SD, n = 3, dash = no observable effect; for EC50: read-out: Cardiac SR Ca^2+ Uptake Activity EC50
T1 construct: Cardiac SR vesicles were isolated from fresh porcine left ventricular tissue; from tissue; host or cells: porcine left ventricular tissue, cardiac SR vesicles
Experimental: (§1) For skeletal SR, rabbit muscles were freshly harvested from the back and hind leg of New Zealand White rabbits and purified using a sucrose gradient. The resulting light skeletal SR contains 80% SERCA, as a proportion of total protein content. Cardiac SR vesicles were isolated from fresh porcine left ventricular tissue.
(§2) To determine compound effect on the Ca^2+-uptake activity of SERCA1a and SERCA2a, we used an oxalate-supported assay. A solution containing 50 mM MOPS (pH 7.0), 100 mM KCl, 30 mg/mL sucrose, 1 mM EGTA, 10 mM potassium oxalate, 2 µM Fluo-4, 30 µg/mL cardiac SR vesicles or 12 μg/mL skeletal SR vesicles, and CaCl2 calculated to reach the desired free [Ca^2+] was dispensed into 384-well black walled, transparent bottomed plates (Greiner Bio-One) containing the tested small molecule and incubated at 21 °C for 20 min while covered and protected from light. To start the reaction, MgATP was added to a final concentration of 5 mM, and the decrease in 485-nm excited fluorescence was monitored at 520 nm for 15 min using a FLIPR Tetra (Molecular Devices, San Jose, CA, USA).
To determine whether the observed increases in SERCA2a ATPase activity translate to Ca^2+ uptake function, we applied our Ca^2+ transport assay to test our selected Hit compounds in cardiac SR (Table 1). Indeed, 16 of the 19 compounds yielded a clear increase in Ca^2+ uptake activity. In fact, eight compounds generated an increase at least 50% greater in cardiac SR than in skeletal SR. Three compounds had either an inhibitory or no effect on Ca^2+ transport, and two of these were also non-activating compounds in skeletal SR.

[2] = target: T2, SERCA1a (skeletal SR vesicles) (Oryctolagus cuniculus, UniProt P04191); assay: Oxalate-supported Ca2+-uptake assay, skeletal SR (CRC at pCa 5.4); format: biochemical, rabbit; details: for Skeletal SR Ca^2+ Uptake Activity Percent Increase: maximal effect of CRC; for Skeletal SR Ca^2+ Uptake Activity Percent Increase / EC50: pCa 5.4, mean ± SD, n = 3, dash = no observable effect; for EC50: read-out: Skeletal SR Ca^2+ Uptake Activity EC50
T2 construct: rabbit muscles were freshly harvested from the back and hind leg of New Zealand White rabbits and purified using a sucrose gradient; from tissue; host or cells: rabbit (New Zealand White) back and hind leg skeletal muscle, light SR vesicles
Experimental: as §1, §2
While Ca^2+-dependent ATPase activity is a direct measure of SERCA activity, coupling of ATP hydrolysis to transport of Ca^2+ across the SR membrane is essential for the role of SERCA in cellular physiology. Therefore, we next asked whether our ATPase-based HTS assay could successfully identify compounds that also increase Ca^2+ uptake of SERCA.

[3] = target: T1, SERCA2a (cardiac SR vesicles); assay: NADH-coupled Ca-ATPase activity assay, cardiac SR (CRC at pCa 5.4); format: biochemical, porcine; details: pCa 5.4, mean ± SD, n = 3; for Cardiac SR ATPase Activity Percent Increase: maximal effect of CRC
Experimental: as §1
(§3) Functional assays were performed using rabbit light skeletal sarcoplasmic (SR) vesicles. For high-throughput NADH-coupled screening, assay mix containing a final concentration of 50 mM MOPS (pH 7.0), 100 mM KCl, 1 mM EGTA, 0.2 mM NADH, 1 mM phosphoenol pyruvate, 10 IU/mL of pyruvate kinase, 10 IU/mL of lactate dehydrogenase, 1 µM of the calcium ionophore A23187, 4 µg/mL skeletal SR, and added CaCl2 to obtain pCa 5.4 was dispensed into 384-well DIVERSet assay plates containing 50 nL of compound or DMSO using a FlexDrop Precision liquid dispenser (Perkin Elmer, Waltham, Massachusetts). Plates were sealed, covered from light, and incubated at room temperature for 20 min. The assay was then started by dispensing MgATP (termed “initiation mix”), to a final concentration of 5 mM in each well (80 µL total assay volume) with the FlexDrop liquid dispenser (Perkin Elmer). The time dependence of absorbance was measured at 340 nm in a SpectraMax Plus384 microplate spectrophotometer (Molecular Devices, Sunnyvale, CA). For follow-up concentration response curves of Hit compounds, 400 nL of either compound or DMSO was dispensed into each well using an Echo liquid dispenser (Beckman Coulter). Testing dose-dependent compound effects on rabbit skeletal SR vesicles was done using the same method, as described above in 384-well plates. Determining compound effects on cardiac SR vesicles was done in a similar method as above, with the exception of 10 µg/mL of cardiac SR incubated in assay mix consisting of a final concentration of 50 mM MOPS (pH 7.0), 100 mM KCl, 1 mM EGTA, 1 µM of the calcium ionophore A23187, and added CaCl2 to the desired free calcium values. After a 20 min incubation, the “initiation mix”, containing a final concentration of 0.2 mM NADH, 1 mM phosphoenol pyruvate, 10 IU/mL of pyruvate kinase, 10 IU/mL of lactate dehydrogenase, and 5mM MgATP, was dispensed into each well.
While initial screening was performed in skeletal SR enriched with the SERCA1a isoform, high sequence and structural homology with the cardiac SERCA2a isoform predicts a potential for cross reactivity of the Hit compounds. To test this hypothesis, we performed ATPase analyses with cardiac SR microsomes, which are enriched for SERCA2a.

[4] = target: T3, SERCA1a (rabbit light skeletal SR vesicles) (Oryctolagus cuniculus, UniProt P04191); assay: NADH-coupled Ca-ATPase activity assay, skeletal SR (CRC at pCa 5.4); format: biochemical; details: n = 3; for Skeletal SR ATPase Activity Percent Increase: maximal effect of CRC 0.05 to 50 µM, pCa 5.4, relative to DMSO, mean ± SD; for EC50: pCa 5.4, mean ± SD
T3 construct: rabbit muscles were freshly harvested from the back and hind leg of New Zealand White rabbits and purified using a sucrose gradient; from tissue; host or cells: rabbit (New Zealand White) back and hind leg skeletal muscle, light SR vesicles
Experimental: as §1, §3
The initial screen assay was performed with compounds at 10 µM. To better study the selected Hit compounds for their activation potential, we performed ATPase analyses (in triplicate) over a range of Hit concentrations (0.05 to 50 µM), generating concentration-response curves (CRCs) to determine maximal effects and EC50 (Figure 2). We used the same Ca^2+ concentration (pCa 5.4) as in the screening assays, thus focusing on the effects on the maximal velocity of SERCA. Two of the selected Hits yielded no response in follow-up assays, probably due to a mismatch in chemical composition between the library compound and the subsequently ordered compound (DS95401435 and DS41547941). This type of discrepancy is a typical hurdle in the screening process. Each of the other 19 compounds produced a substantial increase in ATPase activity, ranging from 30% to 72% (Table 1 and Supporting Information, Figure S1), as expected due to similarity of the CRC assay to the initial screen.

T2 sequence (P04191 1-994 isoform P04191-2): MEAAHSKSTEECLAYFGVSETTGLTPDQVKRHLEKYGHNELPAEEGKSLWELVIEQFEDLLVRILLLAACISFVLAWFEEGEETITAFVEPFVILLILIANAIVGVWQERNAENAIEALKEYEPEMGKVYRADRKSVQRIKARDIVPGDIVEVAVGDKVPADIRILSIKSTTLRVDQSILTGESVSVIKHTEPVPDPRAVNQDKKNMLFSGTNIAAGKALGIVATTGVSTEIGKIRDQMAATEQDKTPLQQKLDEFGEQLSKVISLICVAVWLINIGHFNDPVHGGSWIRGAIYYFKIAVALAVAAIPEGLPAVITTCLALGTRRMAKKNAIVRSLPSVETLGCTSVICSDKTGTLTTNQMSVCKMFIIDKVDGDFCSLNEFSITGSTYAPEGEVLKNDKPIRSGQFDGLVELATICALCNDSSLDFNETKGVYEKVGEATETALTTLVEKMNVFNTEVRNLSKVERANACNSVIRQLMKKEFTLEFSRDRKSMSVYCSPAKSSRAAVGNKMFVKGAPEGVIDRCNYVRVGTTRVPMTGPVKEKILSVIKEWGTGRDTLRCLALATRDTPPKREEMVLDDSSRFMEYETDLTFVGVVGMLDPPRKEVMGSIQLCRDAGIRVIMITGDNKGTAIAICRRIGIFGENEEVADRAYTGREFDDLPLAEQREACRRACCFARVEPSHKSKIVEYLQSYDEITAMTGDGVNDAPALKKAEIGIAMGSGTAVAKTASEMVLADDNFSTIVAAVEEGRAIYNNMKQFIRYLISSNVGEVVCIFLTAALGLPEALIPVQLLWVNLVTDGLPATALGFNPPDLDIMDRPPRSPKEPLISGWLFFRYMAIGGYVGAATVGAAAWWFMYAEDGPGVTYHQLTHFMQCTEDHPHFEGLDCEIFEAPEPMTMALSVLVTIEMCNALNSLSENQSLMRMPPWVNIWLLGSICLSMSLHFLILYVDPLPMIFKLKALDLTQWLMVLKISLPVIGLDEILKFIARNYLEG
T3 sequence (P04191 1-994 isoform P04191-2): as above
T1 sequence (P11607 1-997 isoform P11607-2): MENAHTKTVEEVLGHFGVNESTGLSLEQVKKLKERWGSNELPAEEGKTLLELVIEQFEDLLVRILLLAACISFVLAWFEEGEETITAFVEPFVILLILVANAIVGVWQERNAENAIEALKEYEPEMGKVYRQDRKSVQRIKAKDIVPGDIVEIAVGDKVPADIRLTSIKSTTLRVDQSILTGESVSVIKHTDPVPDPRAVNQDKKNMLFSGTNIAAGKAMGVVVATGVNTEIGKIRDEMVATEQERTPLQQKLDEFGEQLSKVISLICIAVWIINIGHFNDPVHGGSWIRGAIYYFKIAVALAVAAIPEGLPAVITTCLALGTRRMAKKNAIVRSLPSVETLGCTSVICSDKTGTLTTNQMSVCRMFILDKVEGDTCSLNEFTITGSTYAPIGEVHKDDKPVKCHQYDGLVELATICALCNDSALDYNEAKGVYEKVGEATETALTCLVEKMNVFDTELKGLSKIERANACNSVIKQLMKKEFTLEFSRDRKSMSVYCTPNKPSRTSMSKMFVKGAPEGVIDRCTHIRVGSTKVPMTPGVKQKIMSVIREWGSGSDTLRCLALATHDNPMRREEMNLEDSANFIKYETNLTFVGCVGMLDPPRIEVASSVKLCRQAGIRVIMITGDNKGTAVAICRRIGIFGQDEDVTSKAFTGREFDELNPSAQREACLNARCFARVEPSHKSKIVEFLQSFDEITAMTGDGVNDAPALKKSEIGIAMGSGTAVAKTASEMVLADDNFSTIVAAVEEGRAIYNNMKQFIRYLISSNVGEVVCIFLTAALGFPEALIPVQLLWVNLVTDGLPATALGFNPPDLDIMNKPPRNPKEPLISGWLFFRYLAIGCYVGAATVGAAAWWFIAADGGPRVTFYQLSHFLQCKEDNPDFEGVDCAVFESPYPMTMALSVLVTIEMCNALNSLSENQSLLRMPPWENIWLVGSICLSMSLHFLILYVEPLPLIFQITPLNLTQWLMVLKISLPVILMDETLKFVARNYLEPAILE

Row | Cardiac SR Ca^2+ Uptake Activity Percent Increase [1] [%] | EC50 [1] [µM] | Skeletal SR Ca^2+ Uptake Activity Percent Increase [2] [%] | EC50 [2] [µM] | Cardiac SR ATPase Activity Percent Increase [3] [%] | EC50 [3] [µM] | Skeletal SR ATPase Activity Percent Increase [4] [%] | EC50 [4] [µM] | Increase in Ca^2+ uptake in cardiac SR vs. skeletal [1] | Ca^2+ uptake effect (in words), SR type not given ([2]; uncoupling compounds, cluster 5, tissue not stated) | Structure (SMILES)
1 | 21 ± 10 | 1.8 ± 2 | 8 ± 2 | 1.1 ± 0.6 | 36 ± 4 | 2.9 ± 0.6 | 36 ± 4 | 3.2 ± 0.6 | greater than 2 fold |  | CN(Cc1ccccc1)c1ncccc1CNc1ncccc1Cl [Compound 13]
2 | 28 ± 5 | 2.5 ± 0.9 | 8 ± 2 |  | 56 ± 3 | 5.2 ± 0.5 | 25 ± 3 | 3.3 ± 0.6 | greater than 2 fold |  | COc1ccccc1CNc1nc(C(C)(C)C)nc2c1cnn2C [Compound 14]
3 | 6 ± 5 | 5 ± 11 |  |  | 46 ± 6 | 16 ± 3 | 30 ± 1 | 30 ± 12 |  | little to no Ca^2+ uptake effect | C=C(C)COc1cccc(C(=O)NCCn2cccn2)c1 [Compound 15]

The remaining lines, values behind:

Row | Structure (SMILES) | Cardiac SR Ca^2+ Uptake Activity Percent Increase [1] [%] | EC50 [1] [µM] | Skeletal SR Ca^2+ Uptake Activity Percent Increase [2] [%] | EC50 [2] [µM] | Cardiac SR ATPase Activity Percent Increase [3] [%] | EC50 [3] [µM] | Skeletal SR ATPase Activity Percent Increase [4] [%] | EC50 [4] [µM] | Increase in Ca^2+ uptake in cardiac SR vs. skeletal [1] | Ca^2+ uptake effect (in words), SR type not given ([2]; uncoupling compounds, cluster 5, tissue not stated)
4 | Cc1ccc(CN(C)C(=O)CC(c2ccccc2)c2ccc3c(c2)OCO3)o1 (centres unmarked) [Compound 10] | 16 ± 3 | 1.6 ± 0.7 | 11 ± 3 | 4 ± 2 | 55 ± 2 | 7.5 ± 0.4 | 57 ± 3 | 10 ± 1 |  | 
5 | C=CCN(Cc1ccccc1OCC)C(=O)C1CCC1 [Compound 5] | 16 ± 3 | 1 ± 0.7 | 10 ± 1 | 1.4 ± 0.6 | 58 ± 6 | 7.7 ± 2 | 41 ± 3 | 9 ± 1 |  | 
6 | CCC(C)N(Cc1ccc(C)cc1)Cc1nccs1 (centres unmarked) [Compound 1] | 32 ± 2 | 37 ± 4 | 27 ± 3 | 28 ± 9 | 42 ± 12 | 31 ± 10 | 50 ± 25 | 40 ± 21 |  | 
7 | CCCCN(Cc1ccsc1)C(=O)c1occc1C [Compound 6] | 17 ± 1 | 3.8 ± 0.6 | 9 ± 1 | 4 ± 1 | 63 ± 17 | 29 ± 12 | 45 ± 8 | 24 ± 6 |  | 
